We go through ten molecules from patent US7928231B2, “Thienopyrazoles” (priority 2003, dated 2011).

Counter-ions that a name gives are not always drawn.

This experiment concerns the target T1, ITK (Homo sapiens, UniProt Q08881).
T1 construct: made in house
T1 sequence (Q08881 1-620): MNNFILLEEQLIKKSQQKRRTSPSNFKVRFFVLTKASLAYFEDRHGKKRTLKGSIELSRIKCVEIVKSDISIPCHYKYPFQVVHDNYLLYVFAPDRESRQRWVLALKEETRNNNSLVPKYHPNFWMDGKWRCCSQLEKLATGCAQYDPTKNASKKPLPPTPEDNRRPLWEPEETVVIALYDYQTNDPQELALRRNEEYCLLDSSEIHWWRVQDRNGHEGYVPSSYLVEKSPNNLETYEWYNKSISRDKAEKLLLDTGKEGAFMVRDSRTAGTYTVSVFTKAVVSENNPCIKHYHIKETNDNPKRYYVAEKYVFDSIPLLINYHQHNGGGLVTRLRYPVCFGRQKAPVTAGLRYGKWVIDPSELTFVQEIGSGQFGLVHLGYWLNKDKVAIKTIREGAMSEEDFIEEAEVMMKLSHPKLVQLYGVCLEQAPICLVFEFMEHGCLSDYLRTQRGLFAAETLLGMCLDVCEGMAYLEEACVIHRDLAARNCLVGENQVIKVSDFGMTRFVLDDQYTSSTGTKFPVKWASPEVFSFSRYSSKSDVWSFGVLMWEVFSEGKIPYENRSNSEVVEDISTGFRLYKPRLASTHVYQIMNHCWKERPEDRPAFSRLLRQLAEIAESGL
In words: FlashPlate ITK protocol for ITK inhibition determination (ITK autophosphorylation, [γ-33P]ATP). The format is biochemical. To be noted: MBP-tagged ITK, read-out: IC50 (enzyme inhibition)-. The procedure:
ITK kinase is produced with an N-terminal Maltose Binding Protein tag (MW=˜114 kDa) using a Baculovirus expression system. The transfer of radioactive [γ-^33P] phosphate from [γ-^33P]ATP to ITK during the autophosphorylation of ITK is measured by scintillation counting. Streptavidin-coated FlashPlate Plus™ 384 well microplates (PerkinElmer Life Sciences) are designed for in-plate radiometric assays. The interior of each well is permanently coated with a thin layer of scintillant and a covalently bound layer of Streptavidin. ITK is incubated with [γ-^33P]ATP, biotinylated anti-MBP antibody (Cell Signaling Technology™) and test compounds in a 384-well Streptavidin-coated FlashPlate. The biotinylated anti-MBP binds tightly to the MBP-tagged ITK and cross-links it to Streptavidin on the plate surface. Unreacted ^33P-ATP is washed away and ^33P-phosphorylated ITK is measured when the [γ-^33P] incorporated into ITK stimulates the scintillant on the well to emit light. Radioactivity is assessed in a Packard
TopCount scintillation counter. Reagents are pipetted and dispensed using Beckman Biomek robotic equipment. Test compounds (2 μl per well) are pre-diluted from 1 mM 100% dimethyl sulfoxide solutions into water containing 30% dimethyl sulfoxide to produce dose response curves (10 point curves from (final) 30 μM to ˜1 nM); all tests are performed in duplicate. Background binding is assessed by substituting the enzyme inhibitor EDTA (25 mM final concentration) for test compound and maximal binding is assessed by inclusion of assay buffer instead of compound. Test compounds are added to the wells first (2 μl) followed by 10 μl enzyme solution in assay buffer. After 30 minutes pre-incubation, all other reagents are added in a 10 μl volume. The final reagent concentrations/well are as follows: 20 nM enzyme, 0.25 μCi [γ-^33P]ATP, assay buffer: 20 mM HEPES (pH 7.5), 0.15 M NaCl, 3 mM MgCl2, 3 mM MnCl2, 0.01% Triton X-100, 1 mM DTT, 5% glycerol and 0.01% γ-globulin. The plate is incubated at room temperature (RT) for 60 minutes for the kinase reaction. The reaction is stopped with 20 μl of 50 mM EDTA and the biotinylated anti-MBP is allowed to bind to the ITK and the Streptavidin for a further 60 minutes at RT. The unbound reagents are washed away with 2×100 μl phosphate-buffered saline (PBS). Radioactivity is measured for 45 sec/well.
Broadly, the IC50 is the concentration that gives 50% inhibition. As for `C=CCN(CC=C)CCCOc1ccc2cc(-c3n[nH]c4ccsc34)[nH]c2c1` [Example 13, Diallyl-{3-[2-(1H-thieno[3,2-c]pyrazol-3-yl)-1H-indol-6-yloxy]-propyl}-amine], the 50% inhibitory concentration (IC50) turned out to be 12.3 nM.
With `OC1CCN(CCCOc2ccc3cc(-c4n[nH]c5ccsc45)[nH]c3c2)C1` (stereo not shown) [Example 14, 1-{3-[2-(1H-Thieno[3,2-c]pyrazol-3-yl)-1H-indol-6-yloxyl]-propyl}-pyrrolidin-3-ol], the IC50 was 15.1 nM.
As for `OC1CCN(CCCOc2ccc3[nH]c(-c4n[nH]c5ccsc45)cc3c2)CC1` [Example 16, 1-{3-[2-(1H-Thieno[3,2-c]pyrazol-3-yl)-1H-indol-5-yloxy]-propyl}-piperidin-4-ol], the IC50 worked out at 40.9 nM.
Regarding `OC1CCN(CCCOc2ccc3[nH]c(-c4n[nH]c5ccsc45)cc3c2)C1` (stereo not shown) [Example 19, 1-{3-[2-(1H-Thieno[3,2-c]pyrazol-3-yl)-1H-indol-5-yloxy]-propyl}-pyrrolidin-3-ol], the half-inhibitory concentration (IC50) was determined as 45.7 nM.
With `OCC1CCCN(CCCOc2ccc3[nH]c(-c4n[nH]c5ccsc45)cc3c2)C1` (stereo not shown) [Example 18, (1-{3-[2-(1H-Thieno[3,2-c]pyrazol-3-yl)-1H-indol-5-yloxy]-propyl}-piperidin-3-yl)-methanol], the 50% inhibitory concentration (IC50) turned out to be 41 nM.
For the molecule `CN(C)CCCOc1ccc2cc(-c3n[nH]c4ccsc34)[nH]c2c1` [Example 11, Dimethyl-{3-[2-(1H-thieno[3,2-c]pyrazol-3-yl)-1H-indol-6-yloxy]-propyl}-amine], the half-inhibitory concentration (IC50) was 24.2 nM.
In the case of `CCN(CC)CCCOc1ccc2cc(-c3n[nH]c4ccsc34)[nH]c2c1` [Example 12, Diethyl-{3-[2-(1H-thieno[3,2-c]pyrazol-3-yl)-1H-indol-6-yloxy]-propyl}-amine], the IC50 was 5.22 nM.
As to `c1ccc2c(c1)sc1c(-c3nc4ccc(OCCCN5CCCCC5)cc4[nH]3)n[nH]c12` [Example 20, 3-(5-(3-Piperidin-1-yl-propoxy)-1H-Benzoimidazol-2-yl)-1H-benzo[4,5]thieno[3,2-c]pyrazole hydrochloride], the IC50 is 112 nM.
`CN(CCO)CCCOc1ccc2cc(-c3n[nH]c4ccsc34)[nH]c2c1` [Example 15, 2-(Methyl-{3-[2-(1H-thieno[3,2-c]pyrazol-3-yl)-1H-indol-6-yloxy]-propyl}-amino)-ethanol]: the IC50 was determined as 3.26 nM.
Regarding `OC1CCCN(CCCOc2ccc3[nH]c(-c4n[nH]c5ccsc45)cc3c2)C1` (stereo not shown) [Example 17, 1-{3-[2-(1H-Thieno[3,2-c]pyrazol-3-yl)-1H-indol-5-yloxy]-propyl}-piperidin-3-ol], the 50% inhibitory concentration (IC50) turned out to be 76.3 nM.
